According to patent US20190284168A1, “PYRAZOLE DERIVATIES AS SGC STIMULATORS” (IRONWOOD PHARMACEUTICALS, INC., priority 2014, published 2019):

Molecular target: T1, sGC enzyme (Homo sapiens, UniProt Q02108+Q02153)
T1 construct: host or cells: HEK293 cells expressing GloSensor 40F cGMP
T1 sequence (Q02153 1-619): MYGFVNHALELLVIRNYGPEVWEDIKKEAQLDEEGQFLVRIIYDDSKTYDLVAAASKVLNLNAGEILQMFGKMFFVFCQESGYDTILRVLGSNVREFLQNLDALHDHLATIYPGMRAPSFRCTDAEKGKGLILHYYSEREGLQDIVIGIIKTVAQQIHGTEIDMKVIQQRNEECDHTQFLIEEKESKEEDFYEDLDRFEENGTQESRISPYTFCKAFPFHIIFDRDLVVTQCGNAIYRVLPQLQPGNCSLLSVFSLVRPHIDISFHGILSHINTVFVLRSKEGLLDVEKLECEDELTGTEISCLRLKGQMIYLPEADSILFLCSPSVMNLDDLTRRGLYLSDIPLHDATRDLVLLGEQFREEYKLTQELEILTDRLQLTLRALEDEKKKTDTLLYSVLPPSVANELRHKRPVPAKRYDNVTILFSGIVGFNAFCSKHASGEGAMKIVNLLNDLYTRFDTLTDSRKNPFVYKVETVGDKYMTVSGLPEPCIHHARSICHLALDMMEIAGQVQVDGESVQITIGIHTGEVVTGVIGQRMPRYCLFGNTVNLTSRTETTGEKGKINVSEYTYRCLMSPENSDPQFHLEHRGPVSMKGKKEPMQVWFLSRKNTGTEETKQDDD
T1 sequence (Q02108 1-690): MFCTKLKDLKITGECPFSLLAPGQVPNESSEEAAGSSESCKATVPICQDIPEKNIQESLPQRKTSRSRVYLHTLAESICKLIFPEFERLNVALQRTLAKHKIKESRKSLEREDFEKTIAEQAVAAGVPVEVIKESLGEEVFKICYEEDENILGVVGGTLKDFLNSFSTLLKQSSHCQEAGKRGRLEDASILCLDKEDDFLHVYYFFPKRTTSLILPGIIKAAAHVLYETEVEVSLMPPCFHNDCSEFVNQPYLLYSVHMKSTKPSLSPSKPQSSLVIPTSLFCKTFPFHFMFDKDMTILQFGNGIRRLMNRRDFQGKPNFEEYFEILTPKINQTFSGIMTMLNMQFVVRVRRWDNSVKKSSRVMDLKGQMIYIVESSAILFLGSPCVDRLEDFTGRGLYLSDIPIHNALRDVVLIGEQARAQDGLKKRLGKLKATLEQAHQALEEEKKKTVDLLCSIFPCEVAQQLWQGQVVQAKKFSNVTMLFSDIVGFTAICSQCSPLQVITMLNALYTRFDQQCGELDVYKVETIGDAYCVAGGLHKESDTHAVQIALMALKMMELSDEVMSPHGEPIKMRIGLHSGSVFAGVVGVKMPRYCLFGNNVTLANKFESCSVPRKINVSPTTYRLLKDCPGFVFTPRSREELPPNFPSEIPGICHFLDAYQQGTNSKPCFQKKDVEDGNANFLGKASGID
Assay: cGMP GloSensor cell-based assay, 384-well format
Conditions: read-out: sGC_HEK_GloSensor EC50/IC50 Abs (Norm) (nM) Binned (~)
Text: Human embryonic kidney cells (HEK293) cells expressing GloSensor™ 40F cGMP (Part No: CS182801, Promega) were used to evaluate the activity of test compounds. The luminescent biosensors (engineered luciferase) that were incorporated into these cells detect cGMP formed by the compounds stimulating the sGC enzyme and emit luminescence.
cGMP GloSensor cells were maintained in Dulbecco's Modification of Eagle's Medium (DMEM) supplemented with fetal bovine serum (FBS) (10% final) and hygromycine (200 ug/ml). The day before assay, cells were plated in DMEM with 10% FBS in a 50 μL volume at a density of 1.5×10^4 cells/well in a poly-D-lysine coated 384-well flat white-bottom plate (Corning Cat No 35661). Cells were incubated overnight at 37° C. in a humidified chamber with 5% CO2. The next day, medium was removed and cells were replaced with 40 ul/well of GloSensor™, 2 mM (Promega Cat No E1291). Cells were treated for 90 minutes at 25° C. to allow the substrate to equilibrate in the cells. Test compounds and Diethylenetriamine NONOate (DETA-NONOate) was diluted to 3 mM (20×) in serum-free CO2 independent medium and serially diluted at 4× dilutions to create 5× dose curve from which 10 ul was added to the wells (x μM concentration for test compound solution and 10 μM concentration for DETA-NONOate solution; wherein x is one of the following final concentrations). • 30000 nM • 7500 nM • 1875 nM • 468.75 nM • 117.19 nM • 29.29 nM • 7.32 nM • 1.83 nM • 0.46 nM • 0.114 nM • 0.029 nM
For the kinetics studies, luminescense was measured right away for 0.2 sec per well with Envision (Perkin Elmer model No). For endpoint SAR screening, data were collected after 55 min incubation at room temperature.
Data analysis was carried out as indicated above in Example 2A.

| Compound | EC50 [nM] |
| --- | --- |
| Cc1ccc(Cn2nc(-c3ncc(F)c(O)n3)cc2-c2ccon2)cc1F [Compound 188] | < 100 |
| NCC(=O)OCCCCNc1nc(-c2cc(-c3ccon3)n(Cc3ccccc3F)n2)ncc1F [Compound 178, 4-((5-fluoro-2-(1-(2-fluorobenzyl)-5-(isoxazol-3-yl)-1H-pyrazol-3-yl)pyrimidin-4-yl)amino)butyl 2-aminoacetate] | < 100 |
| Oc1nc(-c2cc(-c3ccon3)n(Cc3ncccc3F)n2)ncc1F [Compound 143, 5-fluoro-2-(1-((3-fluoropyridin-2-yl)methyl)-5-(isoxazol-3-yl)-1H-pyrazol-3-yl)pyrimidin-4(3H)-one] | > 1000 |
| Fc1cnc(-c2cc(-c3ccon3)n(Cc3ncccc3F)n2)nc1 [Compound 144] | > 1000 |
| O[C@@H]1CN(c2nc(-c3cc(-c4ccon4)n(Cc4ccccc4F)n3)ncc2F)C[C@H]1O (racemic) [Compound 167, trans-1-(5-fluoro-2-(1-(2-fluorobenzyl)-5-(isoxazol-3-yl)-1H-pyrazol-3-yl)pyrimidin-4-yl)pyrrolidine-3,4-diol] | < 100 |
| CC(C)(C)OC(=O)C[C@H]1C[C@@H](CCNc2nc(-c3cc(-c4ccon4)n(Cc4ccccc4F)n3)ncc2F)OC(C)(C)O1 [Compound 132] | < 100 |
| COC(=O)C1CCN(c2nc(-c3cc(-c4ccon4)n(Cc4ccccc4F)n3)ncc2F)CC1 [Compound 171, methyl 1-(5-fluoro-2-(1-(2-fluorobenzyl)-5-(isoxazol-3-yl)-1H-pyrazol-3-yl)pyrimidin-4-yl)piperidine-4-carboxylate] | < 100 |
| OCCCCNc1nc(-c2cc(-c3ccon3)n(Cc3ccccc3F)n2)ncc1F [Compound 176, 4-((5-fluoro-2-(1-(2-fluorobenzyl)-5-(isoxazol-3-yl)-1H-pyrazol-3-yl)pyrimidin-4-yl)amino)butan-1-ol] | < 100 |
| COC(=O)CCCCNc1nc(-c2cc(-c3ccon3)n(Cc3ccccc3F)n2)ncc1F [Compound 175, methyl 5-((5-fluoro-2-(1-(2-fluorobenzyl)-5-(isoxazol-3-yl)-1H-pyrazol-3-yl)pyrimidin-4-yl)amino)pentanoate] | < 100 |
| O=C(O)C[C@H](O)C[C@H](O)CCNc1nc(-c2cc(-c3ccon3)n(Cc3ccccc3F)n2)ncc1F [Compound 134, (3R,5R)-7-((5-fluoro-2-(1-(2-fluorobenzyl)-5-(isoxazol-3-yl)-1H-pyrazol-3-yl)pyrimidin-4-yl)amino)-3,5-dihydroxyheptanoic acid] | 100 to 1000 |
| CN(CC(O)c1ccc(O)c(O)c1)c1nc(-c2cc(-c3ccon3)n(Cc3ccccc3F)n2)ncc1F (stereo not drawn) [Compound 168, 4-(2-((5-fluoro-2-(1-(2-fluorobenzyl)-5-(isoxazol-3-yl)-1H-pyrazol-3-yl)pyrimidin-4-yl)(methyl)amino)-1-hydroxyethyl)benzene-1,2-diol] | < 100 |
| Nc1ccnc(-c2cc(-c3ccon3)n(Cc3ncccc3F)n2)n1 [Compound 145] | > 1000 |
| Oc1nc(-c2cc(-c3ccon3)n(Cc3cccnc3)n2)ncc1F [Compound 189] | > 1000 |
| NCC(=O)OC1CCN(c2nc(-c3cc(-c4ccon4)n(Cc4ccccc4F)n3)ncc2F)CC1 [Compound 173, 1-(5-fluoro-2-(1-(2-fluorobenzyl)-5-(isoxazol-3-yl)-1H-pyrazol-3-yl)pyrimidin-4-yl)piperidin-4-yl 2-aminoacetate] | < 100 |
| O=c1[nH]c(-c2cc(-c3ccon3)n(CCC(F)(F)C(F)(F)F)n2)ncc1F [Compound 128, 5-fluoro-2-(5-(isoxazol-3-yl)-1-(3,3,4,4,4-pentafluorobutyl)-1H-pyrazol-3-yl)pyrimidin-4(3H)-one] | > 1000 |
| OC(CNc1nc(-c2cc(-c3ncco3)n(Cc3ccccc3F)n2)ncc1F)(C(F)(F)F)C(F)(F)F [Compound 141] | 100 to 1000 |
| O=c1[nH]c(-c2cc(-c3ccsn3)n(Cc3ccccc3F)n2)ncc1F [Compound 111] | < 100 |
| NCC(=O)OCCCNc1nc(-c2cc(-c3ccon3)n(Cc3ccccc3F)n2)ncc1F [Compound 177, 3-((5-fluoro-2-(1-(2-fluorobenzyl)-5-(isoxazol-3-yl)-1H-pyrazol-3-yl)pyrimidin-4-yl)amino)propyl 2-aminoacetate] | < 100 |
| Cc1ccc(Cn2nc(-c3ncc(F)c(O)n3)cc2-c2ccon2)cc1 [Compound 185] | < 100 |
| COC(=O)CCCNc1nc(-c2cc(-c3ccon3)n(Cc3ccccc3F)n2)ncc1F [Compound 174, methyl 4-((5-fluoro-2-(1-(2-fluorobenzyl)-5-(isoxazol-3-yl)-1H-pyrazol-3-yl)pyrimidin-4-yl)amino)butanoate] | < 100 |
| O=C1C[C@H](O)C[C@@H](CCNc2nc(-c3cc(-c4ccon4)n(Cc4ccccc4F)n3)ncc2F)O1 [Compound 133, (4R,6R)-6-(2-((5-fluoro-2-(1-(2-fluorobenzyl)-5-(isoxazol-3-yl)-1H-pyrazol-3-yl)pyrimidin-4-yl)amino)ethyl)-4-hydroxytetrahydro-2H-pyran-2-one] | < 100 |
| COC(=O)CCN(C)c1nc(-c2cc(-c3ccon3)n(Cc3ccccc3F)n2)ncc1F [Compound 172, methyl 3-((5-fluoro-2-(1-(2-fluorobenzyl)-5-(isoxazol-3-yl)-1H-pyrazol-3-yl)pyrimidin-4-yl)(methyl)amino)propanoate] | < 100 |

Further lines, results first:

| EC50 [nM] | Compound |
| --- | --- |
| > 1000 | CCOC(=O)C(C)(C)c1nnc(-c2cc(-c3ccon3)n(Cc3ccccc3F)n2)nc1N [Compound 209] |
| 100 to 1000 | Cc1cc(Cn2nc(-c3ncc(F)c(O)n3)cc2-c2ccon2)on1 [Compound 190] |
| > 1000 | CCOC(=O)C(C)(C)c1nc(-c2cc(-c3ccon3)n(Cc3ccccc3F)n2)nnc1O [Compound 192] |
| > 1000 | Oc1nc(-c2cc(-c3ccon3)n(Cc3ccno3)n2)ncc1F [Compound 211] |
| > 1000 | CC(=O)c1cc(-c2nncc(N)n2)nn1Cc1ccccc1F [Compound 198] |
| > 1000 | Oc1nc(-c2cc(-c3ccon3)n(Cc3cncnc3)n2)ncc1F [Compound 216] |
| 100 to 1000 | CC(=O)c1cc(-c2ncc(F)c(NCC(F)(F)F)n2)nn1Cc1ccccc1F [Compound 204] |
| 100 to 1000 | Oc1nc(-c2cc(-c3ccon3)n(Cc3cccc(F)c3)n2)ncc1F [Compound 197] |
| > 1000 | Oc1nc(-c2cc(-c3ccon3)n(Cc3ncccn3)n2)ncc1F [Compound 215] |
| 100 to 1000 | Cc1ccc(Cn2nc(-c3ncc(F)c(O)n3)cc2-c2ccon2)c(F)c1 [Compound 208] |
| > 1000 | CC(=O)c1cc(-c2nncc(O)n2)nn1Cc1ccccc1F [Compound 201] |
| 100 to 1000 | CCOC(=O)C(C)(C)c1nnc(-c2cc(-c3ccon3)n(Cc3ccccc3F)n2)nc1O [Compound 191] |
| 100 to 1000 | Oc1nc(-c2cc(-c3ccon3)n(Cc3ccc(F)cc3)n2)ncc1F [Compound 213] |
| > 1000 | Oc1nc(-c2cc(-c3ccon3)n(CC(F)(F)F)n2)ncc1F [Compound 214] |
